Assay results reported in ChEMBL document CHEMBL1130845, “Modulation of multidrug resistance by taxuspine C and other taxoids from Japanese yew” (Bioorg Med Chem Lett, 1998).
≈ marks a conversion by molar mass, not a printed value.

Legend:
Mus musculus [1] = assay: Compound was evaluated for antitumor activity in P388/VCR-bearing mice at 200 mg/kg as in the presence of vincristine at the 0.1 mg/kg; assay type: functional
Mus musculus [2] = assay: Compound was evaluated for antitumor activity in P388/VCR-bearing mice at 200 mg/kg in the presence of vincristine at 0.1 mg/kg; assay type: functional
L1210 = assay: Cytotoxic activity was evaluated against murine Leukemia L1210 cells; assay type: functional, cell-based; details: Mus musculus
Mus musculus [3] = assay: Compound was evaluated for antitumor activity in P388/VCR-bearing mice at 200 mg/Kg; assay type: functional
[4] = Cytotoxic activity was evaluated against Epidermoid Carcinoma KB cells; assay type: functional, cell-based; details: Homo sapiens
Mus musculus [5] = assay: Compound was evaluated for antitumor activity in P388/VCR-bearing mice at 200 mg/kg in the presence of vincristine at 0.2 mg/kg; assay type: functional
Mus musculus [6] = assay: Compound was evaluated for antitumor activity in P388/VCR-bearing mice at 200 mg/Kg as in the presence of vincristine at 0.1 mg/kg; assay type: functional
[7] = Effect on cellular accumulation of Vincristine in multidrug resistant human ovarian cancer 2780AD cells was determined in the presence at a dose 10 ug/mL of taxoids; assay type: functional, A2780 ADR
[8] = Effect on cellular accumulation of Vincristine in multidrug resistant human ovarian cancer 2780AD cells was determined at a dose 10 ug/mL; assay type: functional, A2780 ADR
Mus musculus [9] = assay: Compound was evaluated for antitumor activity in P388/VCR-bearing mice at 0.2 mg/Kg as range.; assay type: functional
Mus musculus [10] = assay: Compound was evaluated for antitumor activity in P388/VCR-bearing mice at 0.2 mg/Kg as in the presence of vincristine at 0.1 mg/kg as the ratio of median survival time of treated mice to control mice; assay type: functional
Mus musculus [11] = assay: Compound was evaluated for antitumor activity in P388/VCR-bearing mice at 0.2 mg/Kg in the presence of vincristine at 0.1 mg/kg as range.; assay type: functional
Mus musculus [12] = assay: Compound was evaluated for antitumor activity in P388/VCR-bearing mice at 0.2 mg/Kg as the ratio of median survival time of treated mice to control mice; assay type: functional
Mus musculus [13] = assay: Compound was evaluated for antitumor activity in P388/VCR-bearing mice at 0.2 mg/Kg as percent ratio of median survival time of treated mice to control mice; assay type: functional
Mus musculus [14] = assay: Compound was evaluated for antitumor activity in P388/VCR-bearing mice at 0.2 mg/Kg in the presence of vincristine at 0.1 mg/kg as percent ratio of median survival time of treated mice to control mice; assay type: functional

Structure (SMILES)	IC50 (L1210) [µg/mL]	IC50 [4] [µg/mL]	also measured
C=C1C2[C@H](OC(C)=O)[C@@H]3CC(=O)[C@@H](C)C([C@@H](OC(C)=O)[C@H](OC(C)=O)[C@]2(C)CC[C@@H]1OC(=O)/C=C/c1ccccc1)C3(C)C (some centres undefined)	5.8 (≈ 9.53 µM)	> 10	T/C (Mus musculus [1]): 105%; Median T/C (Mus musculus [2]): 12 days; T/C (Mus musculus [3]): 138%; Median T/C (Mus musculus [5]): 15.8 days; Range (Mus musculus [5]): 12 days; Range (Mus musculus [6]): 10 days
C=C1[C@@H](OC(=O)/C=C/c2ccccc2)C[C@H](OC(C)=O)[C@]2(C)[C@@H]1C[C@@H]1C[C@H](O)C(C)=C([C@@H](OC(C)=O)[C@@H]2OC(C)=O)C1(C)C [TAXEZOPIDINE H]	6.2 (≈ 10.2 µM)	> 10	–
CC(=O)O[C@@]12CO[C@@H]1C[C@H](O)[C@@]1(C)C(=O)[C@H](OC(=O)CC(C)O)C3=C(C)[C@@H](OC(=O)[C@H](O)[C@@H](NC(=O)c4ccccc4)c4ccccc4)C[C@@](O)([C@@H](OC(=O)c4ccccc4)[C@H]21)C3(C)C (some centres undefined)	0.95 (≈ 1.06 µM)	0.0025 (≈ 0.00278 µM)	–
CC(=O)O[C@H]1C(=O)[C@@]2(C)[C@H]([C@H](OC(=O)c3ccccc3)[C@]3(O)C[C@H](O)C(C)=C1C3(C)C)[C@]1(OC(C)=O)CO[C@@H]1C[C@@H]2O [BACCATIN III]	> 10	10 (≈ 17 µM)	VCR accumulation [7]: 84
CC(=O)O[C@H]1C2=C(CO)[C@@H](O)CC[C@@]2(C)[C@@H](OC(C)=O)[C@H](OC(C)=O)[C@@]2(O)[C@H](C)C(=O)C[C@@H]1C2(C)C	> 10	2.6 (≈ 5.09 µM)	VCR accumulation [8]: 203
C=C1[C@@H](OC(=O)/C=C/c2ccccc2)C[C@H](O)[C@@]2(C)[C@@H](O)[C@H](OC(C)=O)C3=C(C)C(=O)C[C@@H]([C@@H](O)[C@H]12)C3(C)C	> 10	8.5 (≈ 15.8 µM)	–
C=C1[C@@H](OC(=O)/C=C/c2ccccc2)CC[C@@]2(C)[C@@H](OC(C)=O)[C@H](OC(C)=O)C3=C(C)[C@@H](OC(C)=O)C[C@@H]([C@@H](O)[C@H]12)C3(C)C	5.8 (≈ 9.53 µM)	9.2 (≈ 15.1 µM)	–
C=C1[C@@H](OC(=O)/C=C/c2ccccc2)CC[C@@]2(C)[C@@H](OC(C)=O)[C@H](OC(C)=O)[C@@]34[C@H](C)C(=O)C[C@@H]([C@@H](OC(C)=O)[C@@]132)C4(C)C [TAXUSPINE C]	> 10	> 10	–
CC[C@]1(O)C[C@H]2CN(CCc3c([nH]c4ccccc34)[C@@](C(=O)OC)(c3cc4c(cc3OC)N(C=O)[C@H]3[C@@](O)(C(=O)OC)[C@H](OC(C)=O)[C@]5(CC)C=CCN6CC[C@]43[C@@H]65)C2)C1 [VINCRISTINE]	–	–	Range (Mus musculus [9]): 10 days; Median T/C (Mus musculus [10]): 10.6 days; Range (Mus musculus [11]): 10 days; Median T/C (Mus musculus [12]): 12.6 days; T/C (Mus musculus [13]): 110%; T/C (Mus musculus [14]): 92%
CC(=O)O[C@H]1C(=O)[C@@]2(C)[C@H]([C@H](OC(=O)c3ccccc3)[C@]3(O)C[C@H](OC(=O)[C@H](O)[C@@H](NC(=O)c4ccccc4)c4ccccc4)C(C)=C1C3(C)C)[C@]1(OC(C)=O)CO[C@@H]1C[C@@H]2O [PACLITAXEL]	0.33 (≈ 0.386 µM)	–	–
C=C1[C@@H](O)CC[C@@]2(C)[C@@H](OC(C)=O)[C@H](O)C3=C(C)C(=O)C[C@@H]([C@@H](O)[C@H]12)C3(C)C	> 10	> 10	–
C=C1[C@@H](O)C[C@H](OC(C)=O)[C@@]2(C)[C@@H](OC(C)=O)[C@H](OC(C)=O)C3=C(C)[C@@H](O)C[C@@H]([C@@H](OC(C)=O)[C@H]12)C3(C)C	> 10	9.2 (≈ 17.1 µM)	–
C=C1[C@@H](O)CC[C@@]2(C)[C@@H](O)[C@H](OC(C)=O)C3=C(C)C(=O)C[C@@H]([C@@H](O)[C@H]12)C3(C)C	> 10	> 10	–
CCCCCC(=O)N(C)[C@@H](c1ccccc1)[C@@H](O)C(=O)O[C@H]1C[C@@]2(O)[C@@H](OC(=O)c3ccccc3)[C@@H]3[C@]4(OC(C)=O)CO[C@@H]4C[C@H](O)[C@@]3(C)C(=O)[C@H](OC(C)=O)C(=C1C)C2(C)C	0.48 (≈ 0.557 µM)	0.17 (≈ 0.197 µM)	–
